Patent US9169217B2, “Arylalkyl esters of 4-amino-6-(substituted phenyl)-picolinates and 6-amino-2-(substituted phenyl)-pyrimidinecarboxylates and their use as selective herbicides for crops” (Dow AgroSciences LLC, priority 2011, dated 2015)

Columns and labels:
Format in all cases: in vivo
Kochia scoparia (Kochia) = experiment: Postemergence herbicidal activity in cereal crops (Example 14); settings: wheat cropping systems, postemergence spray, 35 g ae/ha, 21 DAA
Experimental: (§1) Seeds of the desired test plant species were planted in Sun Gro Metro-Mix® 360 planting mixture, which typically has a pH of 6.0 to 6.8 and an organic matter content of about 30 percent, in plastic pots with a surface area of 84.6 cm^2. When required to ensure good germination and healthy plants, a fungicide treatment and/or other chemical or physical treatment was applied. The plants were grown for 7-36 d in a greenhouse with an approximate 14 h photoperiod which was maintained at about 18° C. during the day and 17° C. during the night. Nutrients and water were added on a regular basis and supplemental lighting was provided with overhead metal halide 1000-Watt lamps as necessary. The plants were employed for testing when they reached the second or third true leaf stage.
(§2) Treatments consisted of esters of compounds 33, 34, 39, 40 and 42 and B, F, G and H. Compound B is methyl 4-amino-3-chloro-6-(4-cyclopropylphenyl)-5-fluoropicolinate; compound F is methyl 6-amino-2-(4-chloro-2-fluoro-3-methoxyphenyl)-5-methoxypyrimidine-4-carboxylate; compound G is methyl 4-amino-3-chloro-6-(4-chloro-2-fluoro-3-methoxyphenyl)picolinate; and compound H is methyl 4-amino-3-chloro-6-(4-chloro-2-fluoro-3-(1-fluoroethyl)phenyl)-5-fluoropicolinate. A weighed amount, determined by the highest rate to be tested, of each test compound was placed in a 25 mL glass vial and was dissolved in 8 mL of a 97:3 v/v mixture of acetone and DMSO to obtain concentrated stock solutions. […] The concentrated stock solutions obtained were diluted with 16 mL of an aqueous mixture containing acetone, water, isopropyl alcohol, DMSO, Agri-dex crop oil concentrate, and Triton® X-77 surfactant in a 64.7:26.0:6.7:2.0:0.7:0.01 v/v ratio to obtain spray solutions containing the highest application rates. Additional application rates were obtained by serial dilution of 12 mL of the high rate solution into a solution containing 4 mL of a 97:3 v/v mixture of acetone and DMSO and 8 mL of an aqueous mixture containing acetone, water, isopropyl alcohol, DMSO, Agri-dex crop oil concentrate, and Triton® X-77 surfactant in a 48.5:39.0:10.0:1.5:1.0:0.02 v/v ratio to obtain ½×, ¼×, ⅛× and 1/16× rates of the high rate. Compound requirements are based upon a 12 mL application volume at a rate of 187 L/ha. Formulated compounds were applied to the plant material with an overhead Mandel track sprayer equipped with 8002E nozzles calibrated to deliver 187 L/ha over an application area of 0.503 m^2 at a spray height of 18 inches (43 cm) above average plant canopy height. Control plants were sprayed in the same manner with the blank.
(§3) The treated plants and control plants were placed in a greenhouse as described above and watered by sub-irrigation to prevent wash-off of the test compounds. After 20-22 d, the condition of the test plants as compared with that of the untreated plants was determined visually and scored on a scale of 0 to 100 percent where 0 corresponds to no injury and 100 corresponds to complete kill.

[1] = tested on: Cirsium arvense (Thistle, Canada); experiment: as above; settings: wheat cropping systems, postemergence spray, 21 DAA
Experimental: as §1, §2, §3

[2] = tested on: Salsola kali (Thistle, Russian); experiment: as above; settings: wheat cropping systems, postemergence spray, 35 g ae/ha, 21 DAA
Experimental: as §1, §2, §3

[3] = tested on: Solidago L. spec (Goldenrod); experiment: Postemergence herbicidal activity in pastures (Example 15); settings: pasture cropping systems, postemergence spray, 35 DAA
Experimental: (§4) Seeds of the desired test plant species were planted in Sun Gro Metro-Mix® 360 planting mixture, which typically has a pH of 6.0 to 6.8 and an organic matter content of about 30 percent, in plastic pots with a surface area of 139.7 cm^2. When required to ensure good germination and healthy plants, a fungicide treatment and/or other chemical or physical treatment was applied. The plants were grown with an approximate 14 h photoperiod which was maintained at about 24° C. during the day and 21° C. during the night. Nutrients and water were added on a regular basis and supplemental lighting was provided with overhead metal halide 1000-Watt lamps as necessary. The plants were employed for testing when they reached the four or six true leaf stage, depending on species.
as §2, with “39” for “33, 34, 39, 40”, “G.” for “42 and B, F, G and H.”, “Compound” for “Compound B is methyl 4-amino-3-chloro-6-(4-cyclopropylphenyl)-5-fluoropicolinate; compound F is methyl 6-amino-2-(4-chloro-2-fluoro-3-methoxyphenyl)-5-methoxypyrimidine-4-carboxylate; compound”, “4-amino-3-chloro-6-(4-chloro-2-fluoro-3-methoxyphenyl)picolinate.” for “4-amino-3-chloro-6-(4-chloro-2-fluoro-3-methoxyphenyl)picolinate; and compound H is methyl 4-amino-3-chloro-6-(4-chloro-2-fluoro-3-(1-fluoroethyl)phenyl)-5-fluoropicolinate.”
as §3, with “35” for “20-22”

[4] = tested on: Cirsium arvense (Thistle, Canada); experiment: as above; settings: pasture cropping systems, postemergence spray, 35 DAA
Experimental: as §4
as §2, with “39” for “33, 34, 39, 40”, “G.” for “42 and B, F, G and H.”, “Compound” for “Compound B is methyl 4-amino-3-chloro-6-(4-cyclopropylphenyl)-5-fluoropicolinate; compound F is methyl 6-amino-2-(4-chloro-2-fluoro-3-methoxyphenyl)-5-methoxypyrimidine-4-carboxylate; compound”, “4-amino-3-chloro-6-(4-chloro-2-fluoro-3-methoxyphenyl)picolinate.” for “4-amino-3-chloro-6-(4-chloro-2-fluoro-3-methoxyphenyl)picolinate; and compound H is methyl 4-amino-3-chloro-6-(4-chloro-2-fluoro-3-(1-fluoroethyl)phenyl)-5-fluoropicolinate.”
as §3, with “35” for “20-22”

Avena fatua (Oat, wild) = experiment: Postemergence herbicidal activity in cereal crops (Example 14); settings: wheat cropping systems, postemergence spray, 35 g ae/ha, 21 DAA
Experimental: as §1, §2, §3

[5] = tested on: Lolium multiflorum (Ryegrass, Italian); experiment: as above; settings: wheat cropping systems, postemergence spray, 17.5 g ae/ha, 21 DAA
Experimental: as §1, §2, §3

[6] = tested on: Setaria viridis (Foxtail, green); experiment: as above; settings: wheat cropping systems, postemergence spray, 17.5 g ae/ha, 21 DAA
Experimental: as §1, §2, §3

COc1c(Cl)ccc(-c2cc(N)c(Cl)c(C(=O)OCc3ccccc3)n2)c1F [Compound 39]
Visual Injury (%) KCHSC (Kochia scoparia (Kochia)): 95%
Visual Injury (%) CIRAR ([1]; 8.75 g ae/ha): 90%
Visual Injury (%) CIRAR ([1]; 17.5 g ae/ha): 95%
Visual Injury (%) SASKR [2]: 90%
Visual Injury (%) SOOSS ([3]; 70 g ae/ha): 85%
Visual Injury (%) SOOSS ([3]; 140 g ae/ha): 100%
Visual Injury (%) CIRAR ([4]; 17.5 g ae/ha): 100%
Visual Injury (%) CIRAR ([4]; 35 g ae/ha): 95%

COC(=O)c1nc(-c2ccc(Cl)c(OC)c2F)nc(N)c1OC [Compound F, methyl 6-amino-2-(4-chloro-2-fluoro-3-methoxyphenyl)-5-methoxypyrimidine-4-carboxylate, reference compound]
Visual Injury (%) AVEFA (Avena fatua (Oat, wild)): 20%
Visual Injury (%) LOLMU [5]: 60%
Visual Injury (%) SETVI [6]: 85%

COC(=O)c1nc(-c2ccc(Cl)c(OC)c2F)cc(N)c1Cl [Compound G, methyl 4-amino-3-chloro-6-(4-chloro-2-fluoro-3-methoxyphenyl)picolinate, reference compound]
Visual Injury (%) KCHSC (Kochia scoparia (Kochia)): 87%
Visual Injury (%) CIRAR ([1]; 8.75 g ae/ha): 70%
Visual Injury (%) CIRAR ([1]; 17.5 g ae/ha): 80%
Visual Injury (%) SASKR [2]: 80%
Visual Injury (%) SOOSS ([3]; 70 g ae/ha): 30%
Visual Injury (%) SOOSS ([3]; 140 g ae/ha): 50%
Visual Injury (%) CIRAR ([4]; 17.5 g ae/ha): 40%
Visual Injury (%) CIRAR ([4]; 35 g ae/ha): 60%
